According to PubChem BioAssay AID1963420 (Molecular Pharmacology Branch, DTP, NCI, 2024):
Where “and” joins values, the source holds several entries; their conditions need not be identical. Equal entries are not always repeated.

Test system: 494315-158-R-J1-PDC complex spheroid growth, percent test/control
Test: Anticancer human tumor 494315-158-R-J1-PDC patient-derived soft tissue sarcoma cell line growth inhibition [Asc]
Details: for viability, T/C: stronger effect = lower value
Procedure, shortened: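 Concentration series start at each agent's clinical Cmax, or at 10 microM when none is established, and drop in half-log steps; agents are applied alone or together to complex spheroids built with HUVEC and hMSC.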

[1] = curve of first compound, second compound 0.01 µM
[2] = curve of first compound, second compound 0.0316 µM
[3] = curve of first compound, second compound 0.1 µM
[4] = curve of first compound, second compound 0.316 µM
[5] = curve of first compound, second compound 1 µM
[6] = second compound 0.01 µM, first compound 0.00316 µM
[7] = second compound 0.01 µM, first compound 0.01 µM
[8] = second compound 0.01 µM, first compound 0.0316 µM
[9] = second compound 0.01 µM, first compound 0.1 µM
[10] = second compound 0.0316 µM, first compound 0.00316 µM
[11] = second compound 0.0316 µM, first compound 0.01 µM
[12] = second compound 0.0316 µM, first compound 0.0316 µM
[13] = second compound 0.0316 µM, first compound 0.1 µM
[14] = second compound 0.1 µM, first compound 0.00316 µM
[15] = second compound 0.1 µM, first compound 0.01 µM
[16] = second compound 0.1 µM, first compound 0.0316 µM
[17] = second compound 0.1 µM, first compound 0.1 µM
[18] = second compound 0.316 µM, first compound 0.00316 µM
[19] = second compound 0.316 µM, first compound 0.01 µM
[20] = second compound 0.316 µM, first compound 0.0316 µM
[21] = second compound 0.316 µM, first compound 0.1 µM
[22] = second compound 1 µM, first compound 0.00316 µM
[23] = second compound 1 µM, first compound 0.01 µM
[24] = second compound 1 µM, first compound 0.0316 µM
[25] = second compound 1 µM, first compound 0.1 µM
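Also: compound exposure lasted seven days after spheroids formed for three days.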

Q: What does the source list for `NC1CCC(NC2CC2c2ccccc2)CC1` (configuration not stated) + CNC(C)C(=O)NC1CN(S(=O)(=O)c2cccc(S(=O)(=O)N3CCC4CCC(C(=O)NC(c5ccccc5)c5ccccc5)N4C(=O)C(NC(=O)C(C)NC)C3)c2)CCC2CCC(C(=O)NC(c3ccccc3)c3ccccc3)N2C1=O?
A: IC50 [1]: > 100 nM; IC50 [2]: > 100 nM; IC50 [3]: > 100 nM; IC50 [4]: < 0.316 nM; IC50 [5]: < 0.316 nM; viability, T/C (second compound 0.01 µM, first compound 0.000316 µM): 72.2%; viability, T/C (second compound 0.01 µM, first compound 0.001 µM): 70.7%; viability, T/C [6]: 71.7%; viability, T/C [7]: 77.2%; viability, T/C [8]: 77.4%; viability, T/C [9]: 66.1%; viability, T/C (second compound 0.0316 µM, first compound 0.000316 µM): 65.7%; viability, T/C (second compound 0.0316 µM, first compound 0.001 µM): 67.8%; viability, T/C [10]: 55.7%; viability, T/C [11]: 70.6%; viability, T/C [12]: 62.3%; viability, T/C [13]: 57.3%; viability, T/C (second compound 0.1 µM, first compound 0.000316 µM): 53.5%; viability, T/C (second compound 0.1 µM, first compound 0.001 µM): 60.9%; viability, T/C [14]: 47.3%; viability, T/C [15]: 55.5%; viability, T/C [16]: 52.4%; viability, T/C [17]: 64.5%; viability, T/C (second compound 0.316 µM, first compound 0.000316 µM): 45.6%; viability, T/C (second compound 0.316 µM, first compound 0.001 µM): 48.3%; viability, T/C [18]: 42.1%; viability, T/C [19]: 43.9%; viability, T/C [20]: 43.7%; viability, T/C [21]: 44.7%; viability, T/C (second compound 1 µM, first compound 0.000316 µM): 38.8%; viability, T/C (second compound 1 µM, first compound 0.001 µM): 41.9%; viability, T/C [22]: 42.9%; viability, T/C [23]: 40.2%; viability, T/C [24]: 35.7%; viability, T/C [25]: 46.9%

Q: Which results are given for `NC(=O)C(=Cn1cnc(-c2cc(C(F)(F)F)cc(C(F)(F)F)c2)n1)c1cncnc1`?
A: viability, T/C (compound 0.000949 µM): 88.9% and 102% and 89.1%; viability, T/C (compound 0.003 µM): 93.4% and 99.6% and 101%; viability, T/C (compound 0.00949 µM): 79.4% and 90.6% and 81.3%; viability, T/C (compound 0.03 µM): 73.1% and 71.5% and 74%; viability, T/C (compound 0.0949 µM): 49.7% and 40.1% and 50.4%; viability, T/C (compound 0.3 µM): 13.5% and 13.7% and 12.4%; IC50 (curve of compound): 94.2 nM and 65.9 nM and 94.4 nM

Q: Which results are given for `CCN1CCN(Cc2ccc(Nc3ncc(F)c(-c4cc(F)c5nc(C)n(C(C)C)c5c4)n3)nc2)CC1` + CNC(C)C(=O)NC1CN(S(=O)(=O)c2cccc(S(=O)(=O)N3CCC4CCC(C(=O)NC(c5ccccc5)c5ccccc5)N4C(=O)C(NC(=O)C(C)NC)C3)c2)CCC2CCC(C(=O)NC(c3ccccc3)c3ccccc3)N2C1=O?
A: IC50 [1]: > 1000 nM; IC50 [2]: > 1000 nM; IC50 [3]: > 1000 nM; IC50 [4]: < 3.16 nM; IC50 [5]: < 3.16 nM; viability, T/C [6]: 77.8%; viability, T/C [7]: 81.6%; viability, T/C [8]: 67%; viability, T/C [9]: 64.4%; viability, T/C (second compound 0.01 µM, first compound 0.316 µM): 67.5%; viability, T/C (second compound 0.01 µM, first compound 1 µM): 63.8%; viability, T/C [10]: 56.8%; viability, T/C [11]: 63.9%; viability, T/C [12]: 68.7%; viability, T/C [13]: 52.2%; viability, T/C (second compound 0.0316 µM, first compound 0.316 µM): 57.2%; viability, T/C (second compound 0.0316 µM, first compound 1 µM): 53.4%; viability, T/C [14]: 55.6%; viability, T/C [15]: 57.4%; viability, T/C [16]: 48.9%; viability, T/C [17]: 58.4%; viability, T/C (second compound 0.1 µM, first compound 0.316 µM): 57.4%; viability, T/C (second compound 0.1 µM, first compound 1 µM): 48.9%; viability, T/C [18]: 51.5%; viability, T/C [19]: 46.4%; viability, T/C [20]: 50.2%; viability, T/C [21]: 43.4%; viability, T/C (second compound 0.316 µM, first compound 0.316 µM): 51.3%; viability, T/C (second compound 0.316 µM, first compound 1 µM): 52.5%; viability, T/C [22]: 36.3%; viability, T/C [23]: 39.7%; viability, T/C [24]: 44.4%; viability, T/C [25]: 41.8%; viability, T/C (second compound 1 µM, first compound 0.316 µM): 45.3%; viability, T/C (second compound 1 µM, first compound 1 µM): 48.5%
